Results published in PubChem BioAssay (NCI).
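A five-concentration, 48-hour dose response in 96-well plates underlies each endpoint, interpolated linearly between surrounding concentrations. TGI marks complete inhibition of growth.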

Experiments:
Assay in all cases: inhibition of tumour cell growth, NCI panel, 48 h
SNB-75 CNS = tested on: SNB-75 CNS
M14 melanoma = tested on: M14 melanoma
MDA-MB-231 breast = tested on: MDA-MB-231 breast
OVCAR-3 ovarian = tested on: OVCAR-3 ovarian
OVCAR-5 ovarian = tested on: OVCAR-5 ovarian
SK-MEL-2 melanoma = tested on: SK-MEL-2 melanoma
COLO 205 colon = tested on: COLO 205 colon
OVCAR-4 ovarian = tested on: OVCAR-4 ovarian
HL-60(TB) leukemia = tested on: HL-60(TB) leukemia
SF-539 CNS = tested on: SF-539 CNS
MDA-MB-435 = tested on: MDA-MB-435
SNB-19 CNS = tested on: SNB-19 CNS
CCRF-CEM leukemia = tested on: CCRF-CEM leukemia
UACC-257 melanoma = tested on: UACC-257 melanoma
NCI-H460 lung = tested on: NCI-H460 lung
SR leukemia = tested on: SR leukemia
EKVX NSCLC = tested on: EKVX NSCLC
A549 NSCLC = tested on: A549 NSCLC
MDA-N = tested on: MDA-N
SF-268 CNS = tested on: SF-268 CNS
HCC-2998 colon = tested on: HCC-2998 colon
SK-MEL-5 melanoma = tested on: SK-MEL-5 melanoma
MALME-3M melanoma = tested on: MALME-3M melanoma
IGROV1 ovarian = tested on: IGROV1 ovarian
T-47D breast = tested on: T-47D breast
HOP-92 NSCLC = tested on: HOP-92 NSCLC
MOLT-4 leukemia = tested on: MOLT-4 leukemia
BT-549 breast = tested on: BT-549 breast
TK-10 renal = tested on: TK-10 renal
SF-295 CNS = tested on: SF-295 CNS
U251 CNS = tested on: U251 CNS
NCI-H226 lung = tested on: NCI-H226 lung
HCT-116 colon = tested on: HCT-116 colon
HCT-15 colon = tested on: HCT-15 colon
SK-OV-3 ovarian = tested on: SK-OV-3 ovarian
RXF 393 renal = tested on: RXF 393 renal
NCI-H522 lung = tested on: NCI-H522 lung
HS 578T breast = tested on: HS 578T breast
SW-620 colon = tested on: SW-620 colon
OVCAR-8 ovarian = tested on: OVCAR-8 ovarian
KM12 colon = tested on: KM12 colon
A498 renal = tested on: A498 renal
HOP-62 NSCLC = tested on: HOP-62 NSCLC
K-562 leukemia = tested on: K-562 leukemia
UO-31 renal = tested on: UO-31 renal
SK-MEL-28 melanoma = tested on: SK-MEL-28 melanoma
786-0 renal = tested on: 786-0 renal
SN12C renal = tested on: SN12C renal
CAKI-1 renal = tested on: CAKI-1 renal
ACHN renal = tested on: ACHN renal
NCI/ADR-RES ovarian = tested on: NCI/ADR-RES ovarian
RPMI-8226 leukemia = tested on: RPMI-8226 leukemia
HT29 colon = tested on: HT29 colon
NCI-H23 lung = tested on: NCI-H23 lung
LOX IMVI melanoma = tested on: LOX IMVI melanoma
MCF7 breast = tested on: MCF7 breast
UACC-62 melanoma = tested on: UACC-62 melanoma
PC-3 prostate = tested on: PC-3 prostate
DU-145 prostate = tested on: DU-145 prostate

## Cc1cc(C)c([S@@](=O)O[C@@H]2[C@H]3OC(C)(C)O[C@H]3O[C@@H]2[C@H]2COC(C)(C)O2)c(C)c1
SNB-75 CNS
  TGI: 59.6 µM
M14 melanoma
  TGI: 59.4 µM
MDA-MB-231 breast
  TGI: 60.5 µM
OVCAR-3 ovarian
  TGI: 41.6 µM
OVCAR-5 ovarian
  TGI: 83.9 µM
SK-MEL-2 melanoma
  TGI: 86.1 µM
COLO 205 colon
  TGI: 38.9 µM
OVCAR-4 ovarian
  TGI: 42.8 µM
HL-60(TB) leukemia
  TGI: 28.7 µM
SF-539 CNS
  TGI: 39.5 µM
MDA-MB-435
  TGI: 40.2 µM
SNB-19 CNS
  TGI: > 100 µM
CCRF-CEM leukemia
  TGI: 88.7 µM
UACC-257 melanoma
  TGI: 46.2 µM
NCI-H460 lung
  TGI: 62.9 µM
SR leukemia
  TGI: 49 µM
EKVX NSCLC
  TGI: 61.2 µM
A549 NSCLC
  TGI: > 100 µM
MDA-N
  TGI: 65.4 µM
SF-268 CNS
  TGI: 95.3 µM
HCC-2998 colon
  TGI: 41.7 µM
SK-MEL-5 melanoma
  TGI: 97.9 µM
MALME-3M melanoma
  TGI: 80.1 µM
IGROV1 ovarian
  TGI: 18 µM
T-47D breast
  TGI: > 100 µM
HOP-92 NSCLC
  TGI: 38.4 µM
MOLT-4 leukemia
  TGI: 43.3 µM
BT-549 breast
  TGI: 30.6 µM
TK-10 renal
  TGI: 59.7 µM
SF-295 CNS
  TGI: > 100 µM
U251 CNS
  TGI: 44.1 µM
NCI-H226 lung
  TGI: 53.2 µM
HCT-116 colon
  TGI: 57 µM
HCT-15 colon
  TGI: > 100 µM
SK-OV-3 ovarian
  TGI: > 100 µM
RXF 393 renal
  TGI: 36.3 µM
NCI-H522 lung
  TGI: 24.1 µM
HS 578T breast
  TGI: > 100 µM
SW-620 colon
  TGI: 49.3 µM
OVCAR-8 ovarian
  TGI: 37.6 µM
KM12 colon
  TGI: 40.2 µM
A498 renal
  TGI: 47.2 µM
HOP-62 NSCLC
  TGI: 51.3 µM
K-562 leukemia
  TGI: 76.8 µM
UO-31 renal
  TGI: 33.2 µM
SK-MEL-28 melanoma
  TGI: 90.5 µM
786-0 renal
  TGI: 64.6 µM
SN12C renal
  TGI: 42.7 µM
CAKI-1 renal
  TGI: 9.11 µM
ACHN renal
  TGI: 33.5 µM
NCI/ADR-RES ovarian
  TGI: 57 µM
RPMI-8226 leukemia
  TGI: 50.5 µM
HT29 colon
  TGI: 85.7 µM
NCI-H23 lung
  TGI: 89.5 µM
LOX IMVI melanoma
  TGI: 30.1 µM
MCF7 breast
  TGI: 57.9 µM
UACC-62 melanoma
  TGI: 51.6 µM
PC-3 prostate
  TGI: 41.2 µM
DU-145 prostate
  TGI: 89.2 µM

## COc1ccc(C2Oc3ccc(Cl)cc3C=C2[N+](=O)[O-])cc1OC (stereo not given)
SNB-75 CNS
  TGI: 2.45 µM
M14 melanoma
  TGI: 1.63 µM
MDA-MB-231 breast
  TGI: 2.59 µM
OVCAR-3 ovarian
  TGI: 2.06 µM
OVCAR-5 ovarian
  TGI: 3.14 µM
SK-MEL-2 melanoma
  TGI: 3.05 µM
COLO 205 colon
  TGI: 4.41 µM
OVCAR-4 ovarian
  TGI: 3.46 µM
HL-60(TB) leukemia
  TGI: 0.47 µM
SF-539 CNS
  TGI: 3.13 µM
MDA-MB-435
  TGI: 1.21 µM
SNB-19 CNS
  TGI: 5.02 µM
CCRF-CEM leukemia
  TGI: 0.372 µM
UACC-257 melanoma
  TGI: 4.07 µM
NCI-H460 lung
  TGI: 5.95 µM
SR leukemia
  TGI: 0.307 µM
EKVX NSCLC
  TGI: 7.13 µM
A549 NSCLC
  TGI: 5.04 µM
MDA-N
  TGI: 1.11 µM
SF-268 CNS
  TGI: 5 µM
HCC-2998 colon
  TGI: 3.33 µM
SK-MEL-5 melanoma
  TGI: 2.96 µM
MALME-3M melanoma
  TGI: 4.28 µM
IGROV1 ovarian
  TGI: 3.35 µM
T-47D breast
  TGI: 4.35 µM
HOP-92 NSCLC
  TGI: 4.33 µM
MOLT-4 leukemia
  TGI: 0.733 µM
BT-549 breast
  TGI: 2.62 µM
TK-10 renal
  TGI: 2.87 µM
SF-295 CNS
  TGI: 3.46 µM
U251 CNS
  TGI: 2.35 µM
NCI-H226 lung
  TGI: 4.24 µM
HCT-116 colon
  TGI: 1.62 µM
HCT-15 colon
  TGI: 3.09 µM
SK-OV-3 ovarian
  TGI: 6.11 µM
RXF 393 renal
  TGI: 3.04 µM
NCI-H522 lung
  TGI: 2.66 µM
HS 578T breast
  TGI: 15.5 µM
SW-620 colon
  TGI: 0.497 µM
OVCAR-8 ovarian
  TGI: 2.64 µM
KM12 colon
  TGI: 2.86 µM
A498 renal
  TGI: 7.36 µM
HOP-62 NSCLC
  TGI: 3.12 µM
K-562 leukemia
  TGI: 1.08 µM
UO-31 renal
  TGI: 3.47 µM
SK-MEL-28 melanoma
  TGI: 3.58 µM
786-0 renal
  TGI: 0.871 µM
SN12C renal
  TGI: 2.82 µM
CAKI-1 renal
  TGI: 3.93 µM
ACHN renal
  TGI: 2.77 µM
NCI/ADR-RES ovarian
  TGI: 2.12 µM
RPMI-8226 leukemia
  TGI: 0.608 µM
NCI-H23 lung
  TGI: 4.35 µM
LOX IMVI melanoma
  TGI: 1.43 µM
MCF7 breast
  TGI: 3.39 µM
UACC-62 melanoma
  TGI: 3.65 µM
PC-3 prostate
  TGI: 2.95 µM
DU-145 prostate
  TGI: 2.97 µM

## CC1(C)[C@@H]2CC[C@@]1(C)C1(SS1=O)C21Cc2ccccc2C1 (stereo not given in full)
SNB-75 CNS
  TGI: > 100 µM
M14 melanoma
  TGI: > 100 µM
MDA-MB-231 breast
  TGI: 34.9 µM
OVCAR-3 ovarian
  TGI: > 100 µM
OVCAR-5 ovarian
  TGI: 45.7 µM
SK-MEL-2 melanoma
  TGI: 60.5 µM
COLO 205 colon
  TGI: 99 µM
OVCAR-4 ovarian
  TGI: 32 µM
HL-60(TB) leukemia
  TGI: 42.5 µM
SF-539 CNS
  TGI: 72.3 µM
MDA-MB-435
  TGI: 99 µM
SNB-19 CNS
  TGI: > 100 µM
CCRF-CEM leukemia
  TGI: 36.3 µM
UACC-257 melanoma
  TGI: 55.9 µM
NCI-H460 lung
  TGI: 52.2 µM
SR leukemia
  TGI: 54.5 µM
EKVX NSCLC
  TGI: 73 µM
A549 NSCLC
  TGI: > 100 µM
MDA-N
  TGI: 35.5 µM
SF-268 CNS
  TGI: > 100 µM
HCC-2998 colon
  TGI: 36.9 µM
MALME-3M melanoma
  TGI: > 100 µM
IGROV1 ovarian
  TGI: 37.2 µM
T-47D breast
  TGI: 70.3 µM
HOP-92 NSCLC
  TGI: 67.5 µM
MOLT-4 leukemia
  TGI: 58.4 µM
BT-549 breast
  TGI: 85.9 µM
TK-10 renal
  TGI: 38.7 µM
SF-295 CNS
  TGI: > 100 µM
U251 CNS
  TGI: 84.5 µM
NCI-H226 lung
  TGI: > 100 µM
HCT-116 colon
  TGI: 28.5 µM
HCT-15 colon
  TGI: 63.7 µM
SK-OV-3 ovarian
  TGI: > 100 µM
RXF 393 renal
  TGI: 38.9 µM
NCI-H522 lung
  TGI: 30.8 µM
HS 578T breast
  TGI: > 100 µM
SW-620 colon
  TGI: 36.1 µM
OVCAR-8 ovarian
  TGI: 31 µM
KM12 colon
  TGI: > 100 µM
A498 renal
  TGI: 97.3 µM
HOP-62 NSCLC
  TGI: > 100 µM
K-562 leukemia
  TGI: 51.6 µM
UO-31 renal
  TGI: 35.8 µM
SK-MEL-28 melanoma
  TGI: 54 µM
786-0 renal
  TGI: 31.3 µM
SN12C renal
  TGI: 35.8 µM
CAKI-1 renal
  TGI: 45.6 µM
ACHN renal
  TGI: 45.5 µM
NCI/ADR-RES ovarian
  TGI: 67.5 µM
RPMI-8226 leukemia
  TGI: 50.5 µM
HT29 colon
  TGI: 40.9 µM
NCI-H23 lung
  TGI: > 100 µM
LOX IMVI melanoma
  TGI: 28.5 µM
MCF7 breast
  TGI: 63.9 µM
UACC-62 melanoma
  TGI: 70 µM
PC-3 prostate
  TGI: 41.7 µM
DU-145 prostate
  TGI: 45.4 µM
